# According to patent US20090041839A1, “PHARMACEUTICAL COMPOSITIONS FOR THE TREATMENT OF PAIN” (priority 2007, published 2009):
# Like-named read-outs stand apart in the source and are kept apart here.
# Test: Single escalating dose, age and food-effect pharmacokinetic study of T-62 soft gelatin capsules (Example 11)
# Type: in vivo
# Conditions: human, plasma, po; for AUC(0-inf) / Cmax / AUC(0-t): arithmetic mean (SD); for AUC(0-t): read-out: AUC0-48; for Tmax: median
# Source text: A single-center, 3-part study: Parts A and B were randomized, double-blind, and placebo-controlled, and evaluated the safety, tolerability, and pharmacokinetics of single, escalating dose levels of a T-62 composition in soft gelatin capsules (oral dosage form 4) in young healthy subjects (Part A), and a single dose of a T-62 composition in soft gelatin capsules (oral dosage form 4) in elderly healthy subjects (Part B). In Part C, the effect of food on the bioavailability of a single dose of T-62 (oral dosage form 4) in young healthy subjects was evaluated in an open label, randomized, crossover fashion.
# Part A: The dose escalation phase of the study consisted of 6 cohorts of 12 young (18-45 years of age) healthy volunteers, a total of 72 subjects, randomly assigned in a 3:1 allocation to receive a single dose of either T-62 or placebo under fasted conditions. For all cohorts, subjects fasted for a minimum of 7 hours pre-dose to 4 hours post-dose. Subjects in the first cohort received a single dose of 100 mg of T-62 (n=9) or placebo (n=3). Subsequent cohorts of 12 new subjects received placebo or a higher dose level of T-62: Nine subjects in each cohort received a total of 2×100, 4×100, 8×100, 10×100 or 12×100 mg capsules of T-62; three subjects per dose level received placebo.
# Part B: A total of 15 elderly subjects (≧65 years of age) were randomly assigned in a 4:1 allocation to receive a single dose of 4×100 mg of T-62 (n=12) or placebo (n=3) under fasted conditions, i.e., subjects were fasted for a minimum of 7 hours pre-dose to 4 hours post-dose.
# Part C: A single cohort of 16 young (18-45 years of age) healthy volunteers were enrolled to evaluate the effect of food on the bioavailability and pharmacokinetics of a single-dose of 4×100 mg soft gelatin capsules of T-62. Subjects were randomly assigned in a 1:1 allocation to 1 of 2 treatment sequences (i.e., fed/fasted or fasted/fed) in a crossover fashion.
# Each subject in Parts A and B completed Screening, Baseline, Treatment, and Follow-Up Phases. The Screening Phase was conducted on an outpatient basis within 30 days, but no less than 3 days, prior to the start of the Baseline Phase. The Baseline Phase consisted of clinical research unit (CRU) admission and final qualification assessments. The Treatment Phase was comprised of dosing, post-treatment safety assessments, and blood collections. Subjects were discharged approximately 50 hours after study drug administration on Day 3. The Follow-Up Phase occurred 2 to 4 days after discharge from the CRU.
# Each subject in Part C completed a Screening Phase, Baseline and Treatment Phases for both crossover Dosing Periods I and II, and a single Follow-Up Phase. The Screening Phase was conducted on an outpatient basis within 30 days, but no less than 3 days, prior to the start of the Baseline Phase for Dosing Period I. Each Baseline Phase consisted of CRU admission and final/continuing qualification assessments. Each Treatment Phase was comprised of dosing, post-treatment safety assessments, and blood collections. T-62 was administered and post-treatment assessments were conducted on Day 1 of Dosing Period I. Subjects were discharged approximately 50 hours after study drug administration on Day 3. Following a 3-day washout, subjects crossed over and entered Dosing Period II. Subjects were re-admitted to the CRU one day before T-62 administration in Dosing Period II for Baseline assessments. T-62 was be administered and post-treatment assessments were conducted on Day 1 of Dosing Period II. Subjects were discharged approximately 50 hours after study drug administration on Day 3. The Follow-Up Phase occurred 2 to 4 days after discharge from the CRU following Dosing Period II. For each Dosing period, subjects randomized to receive T-62 under fed conditions were given a high fat breakfast on Day 1 about half an hour prior to dosing. Fasting subjects were not allowed to eat any food beginning a minimum of 7 hours pre-dose to 4 hours post-dose. […]
# [1] = 100 mg, Part A, young healthy subjects, fasted, single oral dose 100 mg (oral dosage form 4), n = 9
# [2] = 200 mg, Part A, young healthy subjects, fasted, single oral dose 2 × 100 mg (oral dosage form 4), n = 9
# [3] = 400 mg, Part A, young healthy subjects, fasted, single oral dose 4 × 100 mg (oral dosage form 4), n = 9
# [4] = 400 mg, Part B, elderly healthy subjects, fasted, single oral dose 4 × 100 mg (oral dosage form 4), n = 12
# [5] = 400 mg, Part C, Fasted, young healthy subjects, single oral dose 4 × 100 mg (oral dosage form 4), n = 14
# [6] = 400 mg, Part C, Fed, young healthy subjects, single oral dose 4 × 100 mg (oral dosage form 4), n = 16
# [7] = 800 mg, Part A, young healthy subjects, fasted, single oral dose 8 × 100 mg (oral dosage form 4), n = 9
# [8] = 1000 mg, Part A, young healthy subjects, fasted, single oral dose 10 × 100 mg (oral dosage form 4), n = 9
# [9] = 1200 mg, Part A, young healthy subjects, fasted, single oral dose 12 × 100 mg (oral dosage form 4), n = 9
smiles,measurement,setting,value
"Nc1sc2c(c1C(=O)c1ccc(Cl)cc1)CCCC2 [T-62, (2-amino-4,5,6,7-tetrahydrobenzo[b]thiophen-3-yl)(4-chlorophenyl)-methanone]",AUC(0-inf),[1],106 ng·h/mL
same,Cmax,[1],30 ng/mL
same,AUC(0-t),[1],92.2 ng·h/mL
same,Tmax,[1],2 h
same,AUC(0-inf),[2],242 ng·h/mL
same,Cmax,[2],47.7 ng/mL
same,AUC(0-t),[2],224 ng·h/mL
same,Tmax,[2],1 h
same,AUC(0-inf),[3],557 ng·h/mL
same,Cmax,[3],110 ng/mL
same,AUC(0-t),[3],525 ng·h/mL
same,Tmax,[3],2 h
same,AUC(0-inf),[4],1290 ng·h/mL
same,Cmax,[4],227 ng/mL
same,AUC(0-t),[4],1200 ng·h/mL
same,Tmax,[4],1.8 h
same,AUC(0-inf),[5],576 ng·h/mL
same,Cmax,[5],95.8 ng/mL
same,AUC(0-t),[5],533 ng·h/mL
same,Tmax,[5],2.3 h
same,AUC(0-inf),[6],933 ng·h/mL
same,Cmax,[6],154 ng/mL
same,AUC(0-t),[6],884 ng·h/mL
same,Tmax,[6],3.5 h
same,AUC(0-inf),[7],1020 ng·h/mL
same,Cmax,[7],165 ng/mL
same,AUC(0-t),[7],978 ng·h/mL
same,Tmax,[7],3.5 h
same,AUC(0-inf),[8],1460 ng·h/mL
same,Cmax,[8],213 ng/mL
same,AUC(0-t),[8],1370 ng·h/mL
same,Tmax,[8],3 h
same,AUC(0-inf),[9],1200 ng·h/mL
same,Cmax,[9],157 ng/mL
same,AUC(0-t),[9],1110 ng·h/mL
same,Tmax,[9],3.5 h
